Results published in patent US20240261422A1, “ANTHRACYCLINE ANTIBODY CONJUGATES” (SEAGEN INC., priority 2021, published 2024).
Read-outs that look alike come from different tables or passages of the source.

Legend:
[1] = system: HL60/RV, MDR + AML; test: In vitro growth inhibition (CellTiter-Glo, 96 h), HL60/RV; assay type: cell-based; conditions: for IC50: Homo sapiens, read-out: IC50 (nM) HL60/RV, MDR + AML
Description: (§1) Cell culture of cell lines as listed in Table 2-4 in log-phase growth were seeded in 96-well plates and grown for 24 h in cell culture media containing 150 μL RPMI 1640 supplemented with 20% FBS (see Mol. Cancer Ther., 2016, 15(5), 938-945 and Mol. Cancer Ther., 2018, 17(8), 1752-1760). Serial dilutions of free drugs or antibody-drug conjugates (final concentration between 0.004 nM and 1 μM) in cell culture media were prepared at 4× working concentrations; 50 μL of each dilution was added to the 96-well plates. Following addition of the drug or ADC, the cells were incubated with test articles (free drugs or ADCs) for 4 d at 37° C. After 96 h, growth inhibition was assessed by CellTiter-Glo® (Promega, Madison, WI) and luminescence was measured on a plate reader (brand, model).
(§2) Cells were treated for 96 hours with anthracycline analogues listed in Table 2, and then assessed for viability as described in the procedures as described above. […] ND denotes value not determined with that assay for the specified compound.
(§3) ADCs were prepared by full reduction of interchain disulfides to reveal 8-conjugatable cysteines/antibody, and subsequent alkylation with the maleimide-containing drug-linkers (Compounds 14, 18, 21, 24, 29, 32, 33, 34, and 48) according to the procedures described in Mol. Cancer Ther. 2018, 17(8). 1752-1760. Conjugates of antibody cOKT9 were prepared with anthracycline linkers. Cancer cell lines were treated with cOKT9 ADCs (average DAR of 8:1) for 96 h and then assessed for viability. […] ND denotes value not determined with that assay for the specified compound.

[2] = system: BxPC3, PancCa; test: In vitro growth inhibition (CellTiter-Glo, 96 h), BxPC3; assay type: cell-based; conditions: for IC50: Homo sapiens, BXPC-3, anthracycline free drugs, 96 h, read-out: IC50 (nM) BxPC3, PancCa
Description: as §1, §2, §3

[3] = system: 786-O, MDR + RCC; test: In vitro growth inhibition (CellTiter-Glo, 96 h), 786-O; assay type: cell-based; conditions: for IC50: Homo sapiens, 786-0, anthracycline free drugs, 96 h, read-out: IC50 (nM) 786-O, MDR + RCC
Description: as §1, §2, §3

[4] = system: HL60, AML; test: In vitro growth inhibition (CellTiter-Glo, 96 h), HL60; assay type: cell-based; conditions: for IC50: Homo sapiens, read-out: IC50 (nM) HL60, AML
Description: as §1, §2, §3

[5] = system: L540cy, HL; test: In vitro growth inhibition (CellTiter-Glo, 96 h), L540cy; assay type: cell-based; conditions: for IC50: L540cy, anthracycline free drugs, 96 h, read-out: IC50 (nM) L540cy, HL
Description: as §1, §2, §3
(§4) Anti-CD30 ADCs comprising cAC10 antibody conjugated to drug-linkers 24, 32, 29, 18, 14, and 48 with an average DAR of 4 were prepared for evaluation on a CD30-expressing lymphoma cell line panel. […] Anti-CD30 conjugates bearing the PNU linkers 24, 32, 29, 18, and 14 were active on L540cy, DEL, and Karpas299 lymphoma cell lines, and conjugate 48 was active on L540cy and DEL cell lines, with IC50s ranging from 0.2-4 ng/mL.

[6] = system: L540cy, 786-O, BxPC3, HL60, HL60/RV; test: cells; conditions: 96 h, read-out: IC50 values on the cancer lines tested
[7] = system: Karpas299, ALCL; test: In vitro growth inhibition (CellTiter-Glo, 96 h), Karpas299; assay type: cell-based; conditions: cAC10 (anti-CD30) ADCs, average DAR 4
Description: as §1, §4

[8] = system: Ramos, CD30 − NHL; test: In vitro growth inhibition (CellTiter-Glo, 96 h), Ramos; assay type: cell-based; conditions: cAC10 (anti-CD30) ADCs, average DAR 4
Description: as §1, §4

[9] = system: L428, MDR + HL; test: In vitro growth inhibition (CellTiter-Glo, 96 h), L428; assay type: cell-based; conditions: cAC10 (anti-CD30) ADCs, average DAR 4
Description: as §1, §4

[10] = system: L540cy, 786-O, BxPC3, HL60, HL60/RV; conditions: 24 h
[11] = system: DEL, ALCL; test: In vitro growth inhibition (CellTiter-Glo, 96 h), DEL; assay type: cell-based; conditions: cAC10 (anti-CD30) ADCs, average DAR 4
Description: as §1, §4

[12] = HL-60, anthracycline free drugs, 96 h
[13] = cOKT9 ADCs, average DAR 8, 96 h

IC50 [1, 12] [nM]	IC50 [4, 12] [nM]	SMILES	IC50 [2] [nM]	IC50 [3] [nM]	IC50 [5] [nM]	IC50 [6] [nM]	IC50 ([1]; HL-60, 96 h) [nM]	IC50 ([4]; HL-60, 96 h) [nM]	IC50 (ng/mL) Karpas299, ALCL [7]	activity of cOKT9 conjugates on multidrug resistant HL60/RV ([1]; cOKT9 ADCs DAR 8, result in words)	IC50 (ng/mL) HL60/RV, MDR + AML [1, 13]	IC50 (ng/mL) BxPC3, PancCa [2, 13]	IC50 (ng/mL) Ramos, CD30 − NHL [8]	IC50 (ng/mL) L428, MDR + HL [9]	IC50 (ng/mL) 786-O, MDR + RCC [3, 13]	IC50 (ng/mL) HL60, AML [4, 13]	IC50 (ng/mL) L540cy, HL ([5]; cAC10 (anti-CD30) ADCs, average DAR 4)	IC50 (ng/mL) L540cy, HL [5, 13]	IC50s of cOKT9 conjugates [10] [ng/mL]	IC50 (ng/mL) DEL, ALCL [11]
100 to 1000	10 to 100	COc1cccc2c1C(=O)c1c(O)c3c(c(O)c1C2=O)C[C@@](O)(C(=O)CO)C[C@@H]3O[C@H]1C[C@H](N)[C@H](O)[C@H](C)O1 [Compound 1, Doxorubicin, reference compound]	100 to 1000	10 to 100	10 to 100	13 to 390														
		COc1cccc2c1C(=O)c1c(O)c3c(c(O)c1C2=O)C[C@@](O)(C(=O)O)C[C@@H]3O[C@H]1C[C@H]2[C@H](O[C@@H]3[C@@H](OC)OCCN32)[C@H](C)O1 [Compound 6, (2S,4S)-2,5,12-trihydroxy-7-methoxy-4-(((1S,3R,4aS,9S,9aR,10aS)-9-methoxy-1-methyloctahydro-1H-pyrano[4′,3′:4,5]oxazolo[2,3-c][1,4]oxazin-3-yl)oxy)-6,11-dioxo-1,2,3,4,6,11-hexahydrotetracene-2-carboxylic acid]	10 to 100	< 10	< 10	5 to 19	10 to 100	10 to 100												
		COc1cccc2c1C(=O)c1c(O)c3c(c(O)c1C2=O)C[C@@](O)(C(=O)N(C)CCN(C)C(=O)OCc1ccc(NC(=O)[C@H](C)NC(=O)[C@@H](NC(=O)CCN2C(=O)C=CC2=O)C(C)C)cc1)C[C@@H]3O[C@H]1C[C@H]2[C@H](O[C@@H]3[C@@H](OC)OCCN32)[C@H](C)O1 [Compound 32, 4-((S)-2-((S)-2-(3-(2,5-dioxo-2,5-dihydro-1H-pyrrol-1-yl)propanamido)-3-methylbutanamido)propanamido)benzyl methyl(2-((2S,4S)-2,5,12-trihydroxy-7-methoxy-4-(((1S,3R,4aS,9S,9aR,10aS)-9-methoxy-1-methyloctahydro-1H-pyrano[4′,3′:4,5]oxazolo[2,3-c][1,4]oxazin-3-yl)oxy)-N-methyl-6,11-dioxo-1,2,3,4,6,11-hexahydrotetracene-2-carboxamido)ethyl)carbamate]							B (1 ng/mL≤IC50<10 ng/mL)	active	C (100 ng/mL≤IC50<1000 ng/mL)	B (10 ng/mL≤IC50<100 ng/mL)	D (100 ng/mL≤IC50<500 ng/mL)	E (IC50≥500 ng/mL)	C (100 ng/mL≤IC50<1000 ng/mL)	B (10 ng/mL≤IC50<100 ng/mL)	C (10 ng/mL≤IC50<100 ng/mL)	B (10 ng/mL≤IC50<100 ng/mL)	1 to 150	B (1 ng/mL≤IC50<10 ng/mL)
